Entries after “also recorded” stand apart in the source; their conditions may differ.
Columns and labels:
actin = target: T1, actin (Oryctolagus cuniculus, UniProt P68135); test: Actin polymerization assay (pyrene-actin, Actin Polymerization Biochem Kit); type: biochemical; conditions: 10 μM, in vitro
T1 construct: purchased Cytoskeleton, Inc, Denver, CO
Method: To further ascertain the compounds' interference with actin polymerization, the active compounds, along with CytB (1) as a positive control and compound 26 as a negative control, were subjected to an in vitro actin polymerization assay (Fig. 2B). […] This correlation between actin inhibitory activity and migrastatic effect underscores the pivotal role of actin polymerization inhibition in mediating the observed migrastatic activity.
Actin polymerization assay was performed using Actin Polymerization Biochem Kit™ (Cytoskeleton, Inc, Denver, CO) according to the manufacturer protocol. Briefly, 25 μL of G-buffer containing labelled pyrene-actin (0.4 mg mL^−1) and 2.48 μL of either DMSO (10 μM, control) or inhibitor (10 μM) was added in […] well plate. Actin polymerization was initiated by the addition of 2.48 μL of 10× actin polymerization buffer and analysed in time until fluorescent signal plateau was reached using a spectrophotometer (Infinite 200 PRO, Tecan Life Sciences, Tecan Group Ltd., Zürich, CHE). The fluorescence emission intensity of actin polymerization was measured at 420 nm and 360 nm was used as excitation wavelength. Statistical analysis was performed in GraphPad using one-way ANOVA. Measurements were performed in three independent repetitions each consisting of at least three technical replicates. For a representative graph from this assay, see ESI, ^† Fig. S2.

[1] = system: human melanoma cell line BLM; test: Spheroid invasion assay (migrastatic activity); type: cell-based; conditions: 24 h; for migrastatic activity (cell migration, in words): 10 μM, BLM spheroid invasion; for rel. spheroid area: 10 µM, BLM spheroids in collagen, DMSO control 1.02
Method: Compounds 17, 20, and 22–30 were screened for their migrastatic activity using a spheroid invasion assay with the human melanoma cell line BLM.[46] Spheroids were formed and subsequently treated with cytochalasin analogues at a concentration of 10 μM for 24 h. CytB (1) and CytD (2) served as reference compounds for comparison. There was no significant increase in cell migration observed for any of the compounds tested. […] However, the effect was less profound than that of the reference compounds 1 and 2.
The spheroid invasion assay was performed following a previously published protocol.[63] Briefly, BLM cells were grown as spheroids using 3D Petri Dish (Microtissues). After 2 days of spheroid formation, 1.5 mg mL^−1 collagen solution (rat tail, collagen type I) was prepared (1.5 mg mL^−1 rat-tail collagen, 1× DMEM, 1% (v/v) FBS) and added at the bottom of a 96-well plate. Spheroids were embedded into the collagen (one spheroid per well) and covered with another layer of the gel. Collagen was polymerized at 37 °C and subsequently overlaid with a cultivation medium. Images of spheroids were taken with Leica TCS SP2 microscope (5×/0.15 dry objective; LAS X Life Science Microscope software) immediately after their seeding into collagen and again after 24 h. The area of the spheroids at 0 and 24 h was measured using FiJi (Rasband, W.S., ImageJ, NIH, Bethesda, MD, USA). Cellular invasiveness was determined as an increase in spheroid area within 24 h. Three independent experiments were conducted with at least 8 spheroids analysed in each experiment. Statistical analysis was performed in GraphPad using one-way ANOVA. For numeric data and representative images from this assay, see ESI, ^† Table S1 and Fig. S1.
Table S1: Spheroid invasion assay with BLM cell line at 10 µM concentration, 24 h.
Figure S1: Representative images of BLM cell spheroid invasion assay with or without
inhibitor. Images were taken at 0 h and 24 h. using a Leica TCS SP2 microscope (5x/0.15
dry objective). DMSO (first column) was used as a control. Scale bar 500 µm.

[2] = system: human fibroblasts (MRC-5); test: WST-1 viability assay, MRC-5 cells; type: cell-based; conditions: MRC5, 72 h treatment, WST-1 assay, 2D culture, 0–50 μM
Method: (§1) In addition, the cytotoxic activity of compounds 17, 20, and 22–30 was assessed by the WST-1 viability assay using BLM (human melanoma) and MRC-5 (noncancerous human fibroblasts) cells growing in a monolayer (2D cultures, Table 2) after 72 h of treatment.
(§2) Human cells from melanoma (BLM) and human lung fibroblasts (MRC-5, Merck, USA) were used to evaluate in vitro cytotoxicity of the prepared compounds. The cells were maintained at the exponential phase of growth (passaging done by trypsin–EDTA solution) in DMEM and MEM, for BLM and MRC-5, respectively, with stable L-glutamine and supplemented with 10% fetal bovine serum (Thermo Fisher Scientific, USA). The cells were kept in an incubator at 37 °C, 5% CO2 in the atmosphere, and 95% humidity.
(§3) The compound cytotoxicity was determined by a WST-1 viability assay (Merck, USA). The amount of 5000 BLM and MRC-5 cells were seeded into individual wells of 96-well plates in 100 μL of cell cultivation media and maintained in an incubator for 16 h. After this period, the cells were treated with a concentration series (0–50 μM) of the tested compounds diluted in another 100 μL of cultivation media, which was added to the wells containing cells and incubated for 72 h. Then, BLM and MRC-5 cell viability was evaluated by WST-1 agent (5% v/v solution in phenol red-free DMEM media), i.e., the cell media was discarded and 100 μL of WST-1 solution was added. After 2 h incubation, the absorbance of formazan, derived from the WST-1 tetrazolium salt was determined spectrophotometrically at 450 nm (reference at 650 nm) by a UV-vis spectrophotometer (Bio-Rad, USA). Untreated cells, cells treated only with a vehicle, and cells treated with cytochalasin B (1) and D (2) served as controls. The measurement occurred in three independent repetitions each of which consisted of three technical replicates. The data were plotted as dose–response curves from which the half-maximal inhibitory concentrations (IC50) were calculated using AAT Bioquest.

[3] = system: human melanoma cells (BLM); test: WST-1 viability assay, BLM cells; type: cell-based; conditions: for IC50: Homo sapiens, 72 h treatment, WST-1 assay, 2D culture, 0–50 μM; for selectivity index (SI): MRC-5 versus BLM, 72 h, WST-1
Method: as §1, §2, §3

[4] = system: HT1080 fibrosarcoma cells; test: Fluorescence microscopy of actin cytoskeleton (SPY650-FastAct time-lapse); type: cell-based; conditions: 10 μM, within 2 min of addition
Method: Next, we conducted experiments to assess the impact of compound 24, CytB (1) and CytD (2) on the actin cytoskeleton using fluorescence microscopy in HT1080 fibrosarcoma cells (Fig. 3). […] Therefore, we increased the concentration up to 50 μM.
HT1080 cells were seeded into 12-well glass bottom plate and stained with SPY650-FastAct™ following manufacturer's protocol. Untreated cells (control) were imaged every 20 s for 15 min using Leica TCS SP2 microscope (40×/0.6 dry objective). Afterwards, an inhibitor (compound 24 at 10 μM; 50 μM or compound 1 and 2 at 10 μM) was added into the same well and its effect was recorded for 15 min (20 s/image). All video recordings were analyzed using FiJi (Rasband, W.S., ImageJ, NIH, Bethesda, MD, USA).

Row | SMILES | inhibition of actin polymerization (in words) (actin) | migrastatic activity (cell migration, in words) [1] | rel. spheroid area [1] | IC50 [2] | IC50 [3] | selectivity index (SI) [3] | effect on the actin cytoskeleton [4]
1 | COC(=O)[C@@]12C(=O)N[C@@H](Cc3ccccc3)[C@@H]1[C@H](C)C(C)=C[C@@H]2CCCOCc1ccccc1 [Compound 20, Methyl (1S,3aR,4S,7S,7aR)-1-benzyl-4-(3-(benzyloxy)propyl)-6,7-dimethyl-3-oxo-1,2,3,4,7,7a-hexahydro-3aH-isoindole-3a-carboxylate] | inhibit actin polymerization | significant decrease in cell migration; also recorded: modest migrastatic activity | 0.56 | 28.6 ± 1.86 µM | 28.4 ± 0.59 µM | 1.0 | 
2 | COC(=O)[C@@]12C(=O)N[C@@H](Cc3ccccc3)[C@@H]1[C@H](C)[C@@](C)(O)[C@@H](O)[C@@H]2CCOCCc1ccc(Br)cc1 [Compound 23h, Methyl (1S,3aS,4R,5S,6R,7S,7aR)-1-benzyl-4-(2-(4-bromophenethoxy)ethyl)-5,6-dihydroxy-6,7-dimethyl-3-oxooctahydro-3aH-isoindole-3a-carboxylate] |  |  | 0.93 | > 50 µM | 23 ± 2.17 µM | >2.2 | 
3 | COC(=O)[C@@]12C(=O)N[C@@H](Cc3ccccc3)[C@@H]1C(C)=C(C)[C@@H](O)[C@@H]2CCOCCc1ccccc1 [Compound 25, Methyl (1S,3aS,4R,5S,7aR)-1-benzyl-5-hydroxy-6,7-dimethyl-3-oxo-4-(2-phenethoxyethyl)-1,2,3,4,5,7a-hexahydro-3aH-isoindole-3a-carboxylate] |  | inactivity | 1.15 | > 50 µM | > 50 µM |  | 
4 | COC(=O)[C@@]12C(=O)N[C@@H](Cc3ccccc3)[C@@H]1[C@H](C)[C@@](C)(Cl)[C@H](O)[C@@H]2CCOCCc1ccccc1 [Compound 26, Methyl (1S,3aS,4R,5R,6R,7S,7aR)-1-benzyl-6-chloro-5-hydroxy-6,7-dimethyl-3-oxo-4-(2-phenethoxyethyl)octahydro-3aH-isoindole-3a-carboxylate] |  |  | 0.88 | > 50 µM | > 50 µM |  | 
5 | C=C1[C@@H](C)[C@H]2[C@H](Cc3ccccc3)NC(=O)[C@@]2(C(=O)OC)[C@@H](CCOCCc2ccccc2)[C@@H]1OC(C)=O [Compound 27, Methyl (1S,3aS,4R,5S,7S,7aR)-5-acetoxy-1-benzyl-7-methyl-6-methylene-3-oxo-4-(2-phenethoxyethyl)octahydro-3aH-isoindole-3a-carboxylate] |  | inactive | 0.89 | > 50 µM | > 50 µM |  | 
6 | COC(=O)[C@@]12C(=O)N[C@@H](Cc3ccccc3)[C@@H]1C(C)=C(C)[C@@H](OC(C)=O)[C@@H]2CCOCCc1ccccc1 [Compound 28, Methyl (1S,3aS,4R,5S,7aR)-5-acetoxy-1-benzyl-6,7-dimethyl-3-oxo-4-(2-phenethoxyethyl)-1,2,3,4,5,7a-hexahydro-3aH-isoindole-3a-carboxylate] |  |  | 0.72 | > 50 µM | > 50 µM |  | 
7 | CC1=C[C@H](CCOCCc2ccccc2)[C@]2(C(=O)O)C(=O)N[C@@H](Cc3ccccc3)[C@@H]2[C@@H]1C [Compound 29, (1S,3aR,4S,7S,7aR)-1-Benzyl-6,7-dimethyl-3-oxo-4-(2-phenethoxyethyl)-1,2,3,4,7,7a-hexahydro-3aH-isoindole-3a-carboxylic acid] |  |  | 1.05 | > 50 µM | > 50 µM |  | 
8 | CC1=C[C@H](CCOCCc2ccccc2)[C@]2(CO)C(=O)N[C@@H](Cc3ccccc3)[C@@H]2[C@@H]1C [Compound 30, (3S,3aR,4S,7S,7aS)-3-Benzyl-7a-(hydroxymethyl)-4,5-dimethyl-7-(2-phenethoxyethyl)-2,3,3a,4,7,7a-hexahydro-1H-isoindol-1-one] | inhibit actin polymerization | significant decrease in cell migration; also recorded: modest migrastatic activity | 0.50 | > 50 µM | > 50 µM |  | 
9 | C=C1[C@@H](C)[C@H]2[C@H](Cc3ccccc3)NC(=O)[C@]23OC(=O)/C=C/[C@H](O)CCC[C@@H](C)C/C=C/[C@H]3[C@@H]1O [CytB (1), cytochalasin B, reference compound] |  |  | 0.26 | 0.27 ± 0.01 µM | 26.2 ± 0.55 µM | 0.01 | profound effect on the actin cytoskeleton
10 | C=C1[C@@H](C)[C@H]2[C@H](Cc3ccccc3)NC(=O)[C@]23[C@H](OC(C)=O)/C=C/[C@@](C)(O)C(=O)[C@@H](C)C/C=C/[C@H]3[C@@H]1O [CytD (2), cytochalasin D, reference compound] |  |  | 0.23 | 2.36 ± 0.07 µM | 13.7 ± 1.2 µM | 0.17 | profound effect on the actin cytoskeleton
